Reference: patent publication US10123537B2, “Amide compound or salt thereof, agricultural and horticultural insecticide and microbicide comprising the compound, and method for using the insecticide and microbicide” (NIHON NOHYAKU CO., LTD., priority 2013, dated 2018)

Experiments:
Format in all cases: in vivo
Laodelphax striatella = test: Insecticidal test on Laodelphax striatella; conditions: Laodelphax striatellus, 192 h, rice seedlings dipped 30 seconds, 3rd-instar larvae, 8 days after inoculation, read-out: insecticidal effect (corrected mortality rate) activity level
Description: Insecticidal Test on Laodelphax striatella
The amide compounds represented by the general formula (I) of the present invention or salts thereof were separately dispersed in water and diluted to 500 ppm, and rice plant seedlings (variety: Nihonbare) were dipped in the agrochemical dispersions for 30 seconds. After air-dried, each seedling was put into a separate glass test tube and inoculated with ten 3rd-instar larvae of Laodelphax striatella, and then the glass test tubes were capped with cotton plugs. At 8 days after the inoculation, the numbers of surviving larvae and dead larvae were counted, the corrected mortality rate was calculated according to the formula shown below, and the insecticidal effect was evaluated according to the criteria of Test Example 1. Corrected mortality rate (%)=100×(Survival rate in a non-treatment plot−Survival rate in a treatment plot)/Survival rate in a non-treatment plot

Plutella xylostella = test: Insecticidal test on Plutella xylostella; conditions: 144 h, Chinese cabbage seedlings with laid eggs dipped about 30 seconds, 25° C., 6 days after dip treatment, read-out: insecticidal effect (corrected mortality rate, hatched larvae) activity level
Description: Insecticidal Test on Plutella xylostella
Adults of Plutella xylostella were released onto Chinese cabbage seedlings and allowed to lay eggs thereon. At 2 days after the release of the adults, the Chinese cabbage seedlings with laid eggs were dipped for about 30 seconds in agrochemical formulations diluted to 500 ppm, each of which contained a different amide compound represented by the general formula (I) of the present invention as an active ingredient. After air-dried, the seedlings were kept in a thermostatic chamber at 25° C. At 6 days after the dip treatment, the number of hatched larvae per plot was counted, the mortality rate was calculated according to the formula shown below, and the insecticidal effect was evaluated according to the criteria of Test Example 1. This test was conducted in triplicate using 10 adults of Plutella xylostella per plot. Corrected mortality rate (%)=100×(Number of hatched larvae in a non-treatment plot−Number of hatched larvae in a treatment plot)/Number of hatched larvae in a non-treatment plot

Meloidogyne incognita = test: Nematicidal test on Meloidogyne incognita; conditions: 500 ppm, 1 mL soil drench, potted melon seedlings, 8 days after inoculation
Procedure: Nematicidal Test on Meloidogyne incognita
Agrochemical formulations containing different amide compounds represented by the general formula (I) of the present invention or salts thereof as an active ingredient were separately diluted to a concentration of 500 ppm. The diluted agrochemical formulations (1 mL) were drenched into the soil around the foot of potted melon seedlings. At one day after the agrochemical treatment, an aqueous suspension of Meloidogyne incognita (about 500 worms/mL) was drenched into the soil for inoculation both in a treatment plot and in a non-treatment plot. The inoculated pots were kept in a greenhouse at 25° C. At 8 days after the inoculation, the root of each seedling was washed with water, the number of root nodules was counted, and the nematicidal effect was evaluated according to the following criteria.
A: the percentage of the number of root nodules relative to the non-treatment plot is 0%.
B: the percentage of the number of root nodules relative to the non-treatment plot is 1 to 10%.
C: the percentage of the number of root nodules relative to the non-treatment plot is 11 to 20%.
D: the percentage of the number of root nodules relative to the non-treatment plot is 21 to 50%.

Tetranychus urticae = test: Acaricidal test on Tetranychus urticae; conditions: 500 ppm, kidney bean leaf disks dipped about 30 seconds, female adults, two days later, 25° C.
Description: Acaricidal Test on Tetranychus urticae

Row | Structure (SMILES) | mortality at 500 ppm (Laodelphax striatella) | mortality at 500 ppm (Plutella xylostella) | nematicidal effect (number of root nodules relative to non-treatment plot) activity level (Meloidogyne incognita) | acaricidal effect (corrected mortality rate) activity level (Tetranychus urticae)
1 | CC[S+]([O-])c1cc(C(F)(F)F)ccc1C(=O)N(C)c1ccc(C(F)(F)F)cn1 (stereo not shown) [Compound 1-2, 2-(ethylsulfinyl)-N-methyl-4-(trifluoromethyl)-N-(5-(trifluoromethyl)pyridin-2-yl)benzamide] | 100% | 100% | D or higher | –
2 | CCSc1cc(C(F)(F)F)ccc1C(=O)N(C)c1ccc(C(F)(F)F)cn1 [Compound 1-1, 2-(ethylthio)-N-methyl-4-(trifluoromethyl)-N-(5-(trifluoromethyl)pyridin-2-yl)benzamide] | 100% | 100% | D or higher | D or higher
